Laboratory results published in PMC11245557, “Differential potassium channel inhibitory activities of a novel thermostable degradation peptide BmKcug1a-P1 from scorpion medicinal material and its N-terminal truncated/restored peptides” (Scientific Reports, 2024).
Bridge positions count the residues as written; N and C are the ends. Peptide text beside a SMILES is read from it.

How the values were obtained:
Assay type in all cases: cell-based
[1] = molecular target: T1, hKv1.3 channel (Homo sapiens, UniProt P22001); test: Whole-cell patch clamp, hKv1.3 currents in transfected HEK293T cells; conditions: mean ± SE; for IC50: dose-response fitted with modified Hill equation; for IC50 / inhibition of hKv1.3 channel current: SEM
T1 construct: expressed in transfected cells; host or cells: HEK293T
T1 sequence (P22001 whole entry): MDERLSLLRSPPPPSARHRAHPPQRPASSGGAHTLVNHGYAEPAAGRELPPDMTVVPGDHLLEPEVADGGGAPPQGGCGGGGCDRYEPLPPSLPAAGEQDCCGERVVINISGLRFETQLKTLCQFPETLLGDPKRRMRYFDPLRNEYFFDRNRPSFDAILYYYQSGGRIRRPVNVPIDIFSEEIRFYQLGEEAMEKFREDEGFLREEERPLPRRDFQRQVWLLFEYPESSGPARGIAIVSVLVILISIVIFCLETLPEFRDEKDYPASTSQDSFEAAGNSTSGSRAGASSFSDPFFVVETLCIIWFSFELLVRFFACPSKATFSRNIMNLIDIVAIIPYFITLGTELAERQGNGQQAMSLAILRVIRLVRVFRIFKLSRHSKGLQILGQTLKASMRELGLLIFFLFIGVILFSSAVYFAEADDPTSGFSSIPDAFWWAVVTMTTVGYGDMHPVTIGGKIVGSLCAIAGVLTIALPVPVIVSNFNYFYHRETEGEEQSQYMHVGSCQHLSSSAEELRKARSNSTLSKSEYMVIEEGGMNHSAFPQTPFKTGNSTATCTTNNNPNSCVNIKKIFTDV
From the text: (§1) The cDNA fragments encoding potassium channels were provided by others as previously described. The cDNA encoding hKv1.1 channel and hKv1.3 channel were cloned into the pCDNA3.1(+) vector. The cDNA encoding hKv1.2 channel, hKv1.6 channel and hKv3.2 channel were inserted into the pIRES2-EGFP vector.
(§2) HEK293T cell lines were obtained from the BeNa Culture Collection (Xinyang, China) and maintained in DMEM (Dulbecco’s Modified Eagle Medium, Gibco, Pittsburgh, PA, USA) supplemented with 10% fetal bovine serum (FBS, Gibco) and 1% penicillin/streptomycin (Gibco). Cells were passaged using Pancreatin (Gibco). For transfection experiments, HEK293T cells were seeded in appropriate culture vessels and allowed to reach 70–80% confluency. The expression vectors of pEGFP-N1 and potassium channels were co-transfected into HEK293T cells using ExFect Transfection Reagent (Vazyme, Nanjing, China) following its manufacturer’s instructions. Briefly, plasmid DNA and transfection reagent were mixed in serum-free medium, incubated for 15–30 min at room temperature to allow complex formation, and then added to the cells. After 24–48 h transfection, the single positive cells were selected based on the presence of GFP fluorescence to assess the potassium channel inhibiting activities of the peptides using whole cell patch clamp technique.
(§3) An EPC-10 patch-clamp amplifier which was controlled by PatchMaster software (HEKA Elektronik, Lambrecht, Germany) was applied to measure and record the potassium currents for whole-cell. The MPS-2 multichannel microperfusion system (INBIO Inc., Wuhan, China) was applied to exchange the external bath solution with different concentration of peptides. According to the protocol as previously described, the internal patch pipette solution and bath solution were prepared. The peptides were dissolved in Bath solution with 0.01% BSA (Gibco, Pittsburgh, PA, USA) to different concentrations. The potassium currents of hKv1.1, hKv1.2, hKv1.3, hKv1.6 and hKv3.2 channel were generated following the respective protocols as previously described. The results of the electrophysiological experiment are presented as the mean ± SE, and over three cells for each peptide in any concentration were examined ([…]).
(§4) For electrophysiological experiments, we used the ClampFit (Molecular Devices, Sunnyvale, CA, USA) and SigmaPlot software (IBM SPSS, Chicago, IL, USA) to analyze the recorded data. The dose–response relationship between channel current and peptide inhibition is fitted by the modified Hill equation: Ipeptide/Icontrol = 1/{1 + [peptide]/IC50}, in which Ipeptide represent the potassium current under the inhibition of peptide, Icontrol represent the peak current, IC50 is the half-maximum inhibition concentration, and [peptide] represents the concentration of the peptide. The half inhibitory concentration (IC50) was the parameter to be fitted.

[2] = molecular target: T2, hKv1.6 channel (Homo sapiens, UniProt P17658); test: Whole-cell patch clamp, hKv1.6 currents in transfected HEK293T cells; conditions: 1 μM peptide, mean ± SE, n ≥ 3, SEM
T2 construct: expressed in transfected cells; host or cells: HEK293T
T2 sequence (P17658 whole entry): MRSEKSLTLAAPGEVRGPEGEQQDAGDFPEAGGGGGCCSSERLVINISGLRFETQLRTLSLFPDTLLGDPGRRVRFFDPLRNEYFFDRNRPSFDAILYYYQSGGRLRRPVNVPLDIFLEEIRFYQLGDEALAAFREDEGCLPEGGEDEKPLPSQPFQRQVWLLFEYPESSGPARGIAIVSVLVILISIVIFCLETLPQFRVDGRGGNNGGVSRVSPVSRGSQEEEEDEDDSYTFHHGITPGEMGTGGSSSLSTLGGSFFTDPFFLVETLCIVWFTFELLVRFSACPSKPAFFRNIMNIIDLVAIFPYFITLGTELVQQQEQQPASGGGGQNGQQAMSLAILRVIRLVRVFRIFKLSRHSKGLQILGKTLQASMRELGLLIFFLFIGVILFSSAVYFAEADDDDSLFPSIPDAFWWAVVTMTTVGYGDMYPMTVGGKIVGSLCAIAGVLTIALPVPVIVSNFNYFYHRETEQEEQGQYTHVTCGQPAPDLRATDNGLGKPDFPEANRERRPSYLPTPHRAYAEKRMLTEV
From the text: as §1
as §2, with “Briefly, plasmid DNA and transfection reagent were mixed in serum-free medium, incubated for 15–30 min at room temperature to allow complex formation, and then added to the cells.” left out, “technique. […]” for “technique.”
(§5) For electrophysiological experiments, we used the ClampFit (Molecular Devices, Sunnyvale, CA, USA) and SigmaPlot software (IBM SPSS, Chicago, IL, USA) to analyze the recorded data. […]

[3] = molecular target: T3, hKv1.1 channel (Homo sapiens, UniProt Q09470); test: Whole-cell patch clamp, hKv1.1 currents in transfected HEK293T cells; conditions: 1 μM peptide, mean ± SE, n ≥ 3, SEM
T3 construct: expressed in transfected cells; host or cells: HEK293T
T3 sequence (Q09470 whole entry): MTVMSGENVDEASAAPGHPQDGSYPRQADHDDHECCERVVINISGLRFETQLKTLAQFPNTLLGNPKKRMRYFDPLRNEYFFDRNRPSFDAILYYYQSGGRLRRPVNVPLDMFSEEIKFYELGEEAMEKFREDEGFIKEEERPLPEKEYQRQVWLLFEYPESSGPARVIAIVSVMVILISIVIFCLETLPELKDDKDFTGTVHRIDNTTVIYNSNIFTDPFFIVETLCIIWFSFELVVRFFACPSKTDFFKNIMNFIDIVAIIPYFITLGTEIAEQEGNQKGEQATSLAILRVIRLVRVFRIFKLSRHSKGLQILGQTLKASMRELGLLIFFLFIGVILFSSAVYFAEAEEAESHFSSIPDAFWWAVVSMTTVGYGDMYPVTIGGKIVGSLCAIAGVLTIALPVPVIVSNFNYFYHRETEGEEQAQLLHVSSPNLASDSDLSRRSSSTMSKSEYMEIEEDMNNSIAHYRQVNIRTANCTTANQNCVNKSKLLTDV
From the text: as §1
as §2, with “Briefly, plasmid DNA and transfection reagent were mixed in serum-free medium, incubated for 15–30 min at room temperature to allow complex formation, and then added to the cells.” left out, “technique. […]” for “technique.”
as §5

[4] = molecular target: T4, hKv1.2 channel (Homo sapiens, UniProt P16389); test: Whole-cell patch clamp, hKv1.2 currents in transfected HEK293T cells; conditions: mean ± SE
T4 construct: expressed in transfected cells; host or cells: HEK293T
T4 sequence (P16389 whole entry): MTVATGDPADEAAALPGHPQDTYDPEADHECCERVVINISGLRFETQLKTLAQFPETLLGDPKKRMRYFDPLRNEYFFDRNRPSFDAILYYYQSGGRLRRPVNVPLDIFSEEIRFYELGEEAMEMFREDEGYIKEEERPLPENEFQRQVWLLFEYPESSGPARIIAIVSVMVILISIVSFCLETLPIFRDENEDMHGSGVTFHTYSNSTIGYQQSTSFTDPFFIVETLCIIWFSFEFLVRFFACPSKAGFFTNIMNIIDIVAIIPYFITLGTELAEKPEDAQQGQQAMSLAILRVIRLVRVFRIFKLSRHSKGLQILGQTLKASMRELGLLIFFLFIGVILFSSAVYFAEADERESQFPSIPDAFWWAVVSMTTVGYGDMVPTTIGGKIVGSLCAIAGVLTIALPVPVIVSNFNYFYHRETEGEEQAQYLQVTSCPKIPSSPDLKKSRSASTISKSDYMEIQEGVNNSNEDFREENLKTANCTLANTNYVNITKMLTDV
From the text: as §1, §2, §3, §4

[5] = molecular target: T5, hKv3.2 channel (Homo sapiens, UniProt Q96PR1); test: Whole-cell patch clamp, hKv3.2 currents in transfected HEK293T cells; conditions: 1 μM peptide, mean ± SE, n ≥ 3, SEM
T5 construct: expressed in transfected cells; host or cells: HEK293T
T5 sequence (Q96PR1 1-638): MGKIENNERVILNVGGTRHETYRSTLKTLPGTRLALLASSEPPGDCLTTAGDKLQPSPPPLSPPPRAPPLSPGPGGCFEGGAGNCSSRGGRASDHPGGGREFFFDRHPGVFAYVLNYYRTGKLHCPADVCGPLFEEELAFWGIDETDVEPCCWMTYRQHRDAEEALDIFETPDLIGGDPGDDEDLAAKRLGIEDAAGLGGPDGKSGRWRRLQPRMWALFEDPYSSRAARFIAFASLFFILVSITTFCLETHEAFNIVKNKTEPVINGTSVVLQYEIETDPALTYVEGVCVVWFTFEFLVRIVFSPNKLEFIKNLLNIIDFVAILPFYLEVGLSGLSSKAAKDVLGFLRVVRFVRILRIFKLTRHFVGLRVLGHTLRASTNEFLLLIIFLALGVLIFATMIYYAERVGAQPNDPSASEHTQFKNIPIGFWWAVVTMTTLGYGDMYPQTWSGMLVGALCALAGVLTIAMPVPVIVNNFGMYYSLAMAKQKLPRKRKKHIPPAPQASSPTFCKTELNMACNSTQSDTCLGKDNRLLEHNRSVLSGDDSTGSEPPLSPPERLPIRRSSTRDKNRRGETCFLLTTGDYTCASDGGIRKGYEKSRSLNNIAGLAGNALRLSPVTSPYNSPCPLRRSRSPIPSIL
From the text: as §1
as §2, with “Briefly, plasmid DNA and transfection reagent were mixed in serum-free medium, incubated for 15–30 min at room temperature to allow complex formation, and then added to the cells.” left out, “technique. […]” for “technique.”
as §5

[6] = 1 μM peptide, HEK293T, n ≥ 3, SEM

SMILES	IC50 ([1]; HEK293T)	inhibition of potassium currents mediated by hKv1.6 [2]	inhibition of potassium currents mediated by hKv1.1 [3]	inhibition of hKv1.3 channel current ([1]; 40 nM peptide)	inhibition of hKv1.3 channel current ([1]; 200 nM peptide)	inhibition of potassium currents mediated by hKv1.3 [1, 6]	inhibition of hKv1.3 channel current ([1]; 5 μM peptide)	inhibition of hKv1.3 channel current ([1]; 25 μM peptide)	inhibition of hKv1.2 channel current ([4]; 200 nM peptide, SEM)	inhibition of potassium currents mediated by hKv1.2 [4, 6]	inhibition of hKv1.2 channel current ([4]; 5 μM peptide, SEM)	inhibition of hKv1.2 channel current ([4]; 25 μM peptide, SEM)	IC50 ([4]; HEK293T, dose-response fitted with modified Hill equation, SEM)	inhibition of potassium currents mediated by hKv3.2 [5]
CSCC[C@@H]1NC(=O)[C@@H]2CSSC[C@H](NC(=O)[C@H](CO)NC(=O)[C@@H](NC(=O)[C@@H](N)CC(N)=O)C(C)C)C(=O)N[C@@H](CO)C(=O)N[C@@H](C)C(=O)N[C@@H](CO)C(=O)N[C@@H](CO)C(=O)N[C@@H](CCC(N)=O)C(=O)N[C@H]3CSSC[C@H](NC(=O)[C@H](CCCCN)NC(=O)[C@H](CO)NC(=O)[C@H](CC(N)=O)NC1=O)C(=O)N[C@@H](CCCNC(=N)N)C(=O)N[C@H](C(=O)N[C@@H](Cc1ccc(O)cc1)C(=O)N[C@@H](CO)C(=O)O)CSSC[C@H](NC(=O)[C@H](C(C)C)NC(=O)[C@@H]1CCCN1C(=O)[C@H](Cc1c[nH]c4ccccc14)NC3=O)C(=O)N[C@@H](CCC(=O)O)C(=O)N[C@@H](CCCCN)C(=O)N[C@@H](CC(C)C)C(=O)N[C@@H](Cc1ccccc1)C(=O)NCC(=O)N[C@@H]([C@@H](C)O)C(=O)N[C@@H](Cc1ccc(O)cc1)C(=O)N[C@@H](CCCNC(=N)N)C(=O)NCC(=O)N[C@@H](CCCCN)C(=O)N2 [BmKcug1a-P1-D2] (H-NVSCSASSQCWPVCEKLFGTYRGKCMNSKCRCYS-OH; disulfide 4-25, 10-30, 14-32)	1660 ± 180 nM													
CSCC[C@@H]1NC(=O)[C@@H]2CSSC[C@H](NC(=O)[C@@H](N)CO)C(=O)N[C@@H](CO)C(=O)N[C@@H](C)C(=O)N[C@@H](CO)C(=O)N[C@@H](CO)C(=O)N[C@@H](CCC(N)=O)C(=O)N[C@H]3CSSC[C@H](NC(=O)[C@H](CCCCN)NC(=O)[C@H](CO)NC(=O)[C@H](CC(N)=O)NC1=O)C(=O)N[C@@H](CCCNC(=N)N)C(=O)N[C@H](C(=O)N[C@@H](Cc1ccc(O)cc1)C(=O)N[C@@H](CO)C(=O)O)CSSC[C@H](NC(=O)[C@H](C(C)C)NC(=O)[C@@H]1CCCN1C(=O)[C@H](Cc1c[nH]c4ccccc14)NC3=O)C(=O)N[C@@H](CCC(=O)O)C(=O)N[C@@H](CCCCN)C(=O)N[C@@H](CC(C)C)C(=O)N[C@@H](Cc1ccccc1)C(=O)NCC(=O)N[C@@H]([C@@H](C)O)C(=O)N[C@@H](Cc1ccc(O)cc1)C(=O)N[C@@H](CCCNC(=N)N)C(=O)NCC(=O)N[C@@H](CCCCN)C(=O)N2 [BmKcug1a-P1-D4] (H-SCSASSQCWPVCEKLFGTYRGKCMNSKCRCYS-OH; disulfide 2-23, 8-28, 12-30 (inferred); N-terminus and C-terminus assumed)	2210 ± 280 nM													
CSCC[C@@H]1NC(=O)[C@@H]2CSSC[C@H](NC(=O)[C@H](CO)NC(=O)[C@@H](NC(=O)[C@H](CC(N)=O)NC(=O)[C@@H](NC(=O)[C@@H](N)Cc3ccccc3)[C@@H](C)O)C(C)C)C(=O)N[C@@H](CO)C(=O)N[C@@H](C)C(=O)N[C@@H](CO)C(=O)N[C@@H](CO)C(=O)N[C@@H](CCC(N)=O)C(=O)N[C@H]3CSSC[C@H](NC(=O)[C@H](CCCCN)NC(=O)[C@H](CO)NC(=O)[C@H](CC(N)=O)NC1=O)C(=O)N[C@@H](CCCNC(=N)N)C(=O)N[C@H](C(=O)N[C@@H](Cc1ccc(O)cc1)C(=O)N[C@@H](CO)C(=O)O)CSSC[C@H](NC(=O)[C@H](C(C)C)NC(=O)[C@@H]1CCCN1C(=O)[C@H](Cc1c[nH]c4ccccc14)NC3=O)C(=O)N[C@@H](CCC(=O)O)C(=O)N[C@@H](CCCCN)C(=O)N[C@@H](CC(C)C)C(=O)N[C@@H](Cc1ccccc1)C(=O)NCC(=O)N[C@@H]([C@@H](C)O)C(=O)N[C@@H](Cc1ccc(O)cc1)C(=O)N[C@@H](CCCNC(=N)N)C(=O)NCC(=O)N[C@@H](CCCCN)C(=O)N2 [BmKcug1a-P1] (H-FTNVSCSASSQCWPVCEKLFGTYRGKCMNSKCRCYS-OH; disulfide 6-27, 12-32, 16-34)	1540 ± 280 nM	3.8 ± 1.6%	1.9 ± 0.3%	7.0 ± 0.5%	18.3 ± 2.1%	47.3 ± 3.5%	65.2 ± 2.3%	82.0 ± 0.6%	12.6 ± 3.3%	37.7 ± 7.4%	64.1 ± 4.5%	83.9 ± 2.2%	2120 ± 270 nM	6.5 ± 0.9%
